Measured values published in patent US7772245B2, “Inhibitors of histone deacetylase” (Miikana Therapeutics, Inc., priority 2005, dated 2010).

What was measured:
[1] = system: HDAC; assay: In vitro fluorescent histone deacetylase assay (Biomol HDAC fluorescent activity kit, HeLa cell nuclear extract); assay type: biochemical; conditions: 100 μM compound; HeLa cell nuclear extract as source of HDAC activity; 50 μM substrate, 10 min at room temperature
Description: Histone deacetylase (HDAC) activity assays were performed using the HDAC fluorescent activity assay/drug discovery kit (Biomol Research Laboratories, Plymouth Meeting, Pa.) essentially according to the manufacturer's instructions. The included HeLa cell nuclear extract, which contains a mosaic of HDAC enzymes and other nuclear factors, was used as the source of HDAC activity. The final substrate concentration in the assay mixture was 50 μM. The reaction was allowed to proceed for 10 min at room temperature before stopping the reaction. Test compounds were prepared as 20 mM stock solutions in DMSO (Molecular Biology grade, Sigma-Aldrich Co., St. Louis, Mo.) and stored at −70° C. Serial dilutions of test compounds were prepared in assay buffer immediately prior to testing. DMSO was determined in a separate trial to have no significant effect on the activity of this assay at concentrations up to 5%; the final DMSO concentration in the wells was no more than 2% and therefore DMSO effects were safely neglected. Assays were performed in white polystyrene 96-well half-area assay plates (Corning, Corning, N.Y.) and measured on a Wallace 1420 fluorescent plate reader (Wallac Oy, Turku, Finland) with an excitation wavelength of 355 nm, an emission wavelength of 460 nm, and a 1 sec signal averaging time.

[2] = system: HCT116 cells; assay: Whole cell cytotoxicity assay: Sulforhodamine B; assay type: cell-based; conditions: Homo sapiens, HCT-116; 100 μM compound; 48 hours incubation with drug; Sulforhodamine B staining; read-out: % Inhibition of HCT116 cell growth @ 100 μM
Description: [The source words this procedure for another cell line and reports this cell line under the same test.] The following procedure can be found on the Developmental Therapeutics Program NCl/NIH web site at http://dtp.nci.nih.gov/brancehes/btb/ivclsp.html. • 1. Human tumor cell lines of HT29, A549 and MCF7 are grown in DMEM containing 10% fetal bovine serum and 2 mM L-glutamine. Cells are plated in a 96 well plate at a density of 5000 cells per well in 100 μL of growth medium and incubated at 37° C., 5% CO2, for 24 hours prior to the addition of experimental compounds. • 2. Experimental drugs are solubilized in DMSO for a final concentration of 20 mM immediately prior to use. Drugs are further diluted in growth media for a total of nine drug concentrations and a growth control. At the 24 hour time point, one plate of cells is fixed in situ with TCA as a measurement of the cell population at time zero, or the time of drug addition. • 3. The plates are further incubated with drug for an additional 48 hours. • 4. The cells are fixed in situ by gently aspirating off the culture media and then adding 50 μL of ice cold 10% TCA per well and incubated at 4° C. for 60 minutes. The plates are washed with tap water five times and allowed to air dry for 5 minute. • 5. 50 μL of a 0.4% (w/v) Sulforhodamine B solution in 1% (v/v) acetic acid is added per well and incubated for 30 minutes at room temperature. • 6. Following staining, plates are washed five times with 1% acetic acid to remove any unbound dye and then allowed to air dry for 5 minutes. • 7. Stain is solubilized with 100 μL of 10 mM Tris pH 10.5 per well and placed on an orbital rotator for 5 minutes. • 8. Absorbance is read at 570 nm.

SMILES | % Inhibition of HDAC @ 100 μM [1] [%] | inhibition at 100 µM [2] [%]
O=C(/C=C/c1ccc(CN2CCc3c([nH]c4ccccc34)C2)s1)NO [Example 3, (2E)-N-hydroxy-3-[5-(1,3,4,9-tetrahydro-2H-b-carbolin-2-ylmethyl)thien-2-yl]acrylamide] | 97.9 | 98.3
O=C(NO)c1ccc(N2CCc3c([nH]c4ccccc34)C2)nc1 [Example 4, N-hydroxy-6-(1,3,4,9-tetrahydro-2H-b-carbolin-2-yl)nicotinamide] |  | 98.5
COc1cc2c(cc1OC)CN(c1ccc(C(=O)NO)cn1)CC2 [Example 5, 6-(6,7-dimethoxy-3,4-dihydroisoquinolin-2(1H)-yl)-N-hydroxynicotinamide] | 99.7 | 99.9
O=C(NO)c1cnc(N2CCc3c([nH]c4ccccc34)C2)nc1 [Example 9, N-hydroxy-2-(1,3,4,9-tetrahydro-2H-b-carbolin-2-yl)pyrimidine-5-carboxamide] | 99.9 | 99.3
COc1ccc2[nH]c3c(c2c1)CCN(c1ncc(C(=O)NO)cn1)C3 [Example 10, N-hydroxy-2-(6-methoxy-1,3,4,9-tetrahydro-2H-b-carbolin-2-yl)pyrimidine-5-carboxamide] | 99.5 | 98.4
COc1cc2c(cc1OC)CN(c1ncc(C(=O)NO)cn1)CC2 [Example 11, 2-(6,7-dimethoxy-3,4-dihydroisoquinolin-2(1H)-yl)-N-hydroxypyrimidine-5-carboxamide] | 99.8 | 99
O=C(NO)c1cnc(N2CCc3[nH]c4ccccc4c3C2)nc1 [Example 12, N-hydroxy-2-(1,3,4,5-tetrahydro-2H-pyrido[4,3-b]indol-2-yl)pyrimidine-5-carboxamide] | 99.9 | 98.7
Cc1ccc2[nH]c3c(c2c1)CN(c1ncc(C(=O)NO)cn1)CC3 [Example 13, N-hydroxy-2-(8-methyl-1,3,4,5-tetrahydro-2H-pyrido[4,3-b]indol-2-yl)pyrimidine-5-carboxamide] | 99.9 | 99.1
O=C(NO)c1cnc(N2CCc3[nH]c4ccc(Cl)cc4c3C2)nc1 [Example 14, 2-(8-chloro-1,3,4,5-tetrahydro-2H-pyrido[4,3-b]indol-2-yl)-N-hydroxypyrimidine-5-carboxamide] | 99.9 | 98.1
O=C(NO)c1cnc(N2CCc3[nH]c4ccc(Br)cc4c3C2)nc1 [Example 15, 2-(8-bromo-1,3,4,5-tetrahydro-2H-pyrido[4,3-b]indol-2-yl)-N-hydroxypyrimidine-5-carboxamide] | 99.8 | 99
O=C(NO)c1cnc(N2CCc3[nH]c4ccc(OC(F)(F)F)cc4c3C2)nc1 [Example 16, N-hydroxy-2-[8-(trifluoromethoxy)-1,3,4,5-tetrahydro-2H-pyrido[4,3-b]indol-2-yl]pyrimidine-5-carboxamide] | 98.9 | 99
O=C(NO)c1ccc(N2CCc3c([nH]c4ccccc34)C2)cc1 [Example 18, N-hydroxy-4-(1,3,4,9-tetrahydro-2H-b-carbolin-2-yl)benzamide] |  | 98.5
O=C(NO)c1cnc(N2CCc3c([nH]c4ccccc34)C2)s1 [Example 19, N-hydroxy-2-(1,3,4,9-tetrahydro-2H-b-carbolin-2-yl)-1,3-thiazole-5-carboxamide] | 97.6 | 97.2
O=C(/C=C/c1cnc(N2CCc3c([nH]c4ccccc34)C2)nc1)NO [Example 20, (2E)-N-hydroxy-3-[2-(1,3,4,9-tetrahydro-2H-b-carbolin-2-yl)pyrimidin-5-yl]acrylamide] | 99.6 | 98.2
O=C(CCc1cnc(N2CCc3c([nH]c4ccccc34)C2)nc1)NO [Example 21, N-hydroxy-3-[2-(1,3,4,9-tetrahydro-2H-b-carbolin-2-yl)pyrimidin-5-yl]propanamide] | 98.5 | 94
O=C(NO)c1cnc(N2CCc3[nH]c4ccc(-c5cccc(C(=O)N6CCCC6)c5)cc4c3C2)nc1 [Example 42, N-hydroxy-2-{8-[3-(pyrrolidin-1-ylcarbonyl)phenyl]-1,3,4,5-tetrahydro-2H-pyrido[4,3-b]indol-2-yl}pyrimidine-5-carboxamide] |  | 88
O=C(NO)c1cnc(N2CCc3[nH]c4ccc(-c5cccnc5)cc4c3C2)nc1 [Example 47, N-hydroxy-2-{8-(pyridin-3-yl)-1,3,4,5-tetrahydro-2H-pyrido[4,3-b]indol-2-yl}pyrimidine-5-carboxamide] |  | 98.1
CC(=O)Nc1ccc2[nH]c3c(c2c1)CN(c1ncc(C(=O)NO)cn1)CC3 [Example 77, N-hydroxy-2-(8-(N-acetamido)-1,3,4,5-tetrahydro-2H-pyrido[4,3-b]indol-2-yl)pyrimidine-5-carboxamide] |  | 98.1
CS(=O)(=O)Nc1cccc(-c2ccc3[nH]c4c(c3c2)CN(c2ncc(C(=O)NO)cn2)CC4)c1 [Example 88, N-hydroxy-2-{8-[3-(N-methylsulfonamido)phenyl]-1,3,4,5-tetrahydro-2H-pyrido[4,3-b]indol-2-yl}pyrimidine-5-carboxamide] |  | 98.4
CN(C)Cc1cccc(-c2ccc3[nH]c4c(c3c2)CN(c2ncc(C(=O)NO)cn2)CC4)c1 [Example 92, N-hydroxy-2-{8-[3-(N,N-dimethylaminomethyl)phenyl]-1,3,4,5-tetrahydro-2H-pyrido[4,3-b]indol-2-yl}pyrimidine-5-carboxamide] |  | 98.9
O=C(NO)c1cnc(N2CCc3[nH]c4ccc(-c5ccc(CN6CCCC6)cc5)cc4c3C2)nc1 [Example 103, N-hydroxy-2-{8-[4-(pyrrolidin-1-ylmethyl)phenyl]-1,3,4,5-tetrahydro-2H-pyrido[4,3-b]indol-2-yl}pyrimidine-5-carboxamide] |  | 98.9
O=C(NO)c1cnc(N2CCc3[nH]c4ccc(-c5ccc(CN6CCSCC6)cc5)cc4c3C2)nc1 [Example 105, N-hydroxy-2-{8-[4-(thiomorpholin-4-ylmethyl)phenyl]-1,3,4,5-tetrahydro-2H-pyrido[4,3-b]indol-2-yl}pyrimidine-5-carboxamide] |  | 97
O=C(NO)c1cnc(N2CCc3[nH]c4ccc(F)cc4c3C2)nc1 [Example 111, N-hydroxy-2-(8-fluoro-1,3,4,5-tetrahydro-2H-pyrido[4,3-b]indol-2-yl)pyrimidine-5-carboxamide] |  | 97.7
O=C(NO)c1cnc(N2CCc3[nH]c4ccccc4c3CC2)nc1 [Example 114, N-hydroxy-2-(1,4,5,6-tetrahydroazepino[4,5-b]indol-3(2H)-1-yl)pyrimidine-5-carboxamide] |  | 99.3
O=C(NO)c1cnc(N2CCc3[nH]c4ccc(F)cc4c3CC2)nc1 [Example 115, N-hydroxy-2-(9-fluoro-1,4,5,6-tetrahydroazepino[4,5-b]indol-3(2H)-1-yl)pyrimidine-5-carboxamide] |  | 98.8
O=C(NO)c1cnc(N2CCc3[nH]c4cc(-c5cccc(CN6CCCC6)c5)ccc4c3C2)nc1 [Example 121, N-hydroxy-2-{7-[3-(pyrrolidin-1-ylmethyl)phenyl]-1,3,4,5-tetrahydro-2H-pyrido[4,3-b]indol-2-yl}pyrimidine-5-carboxamide] |  | 97.5
